Experimental data as given in patent US8399425B2, “Alleviating neuropathic pain with EETs and sEH inhibitors” (The Regents of the University of California, priority 2007, dated 2013).

Assays:
sEH [1] = biological target: T1, sEH (Homo sapiens, UniProt P34913); experiment: inhibition of sEH; type: biochemical
T1 sequence (P34913 1-555): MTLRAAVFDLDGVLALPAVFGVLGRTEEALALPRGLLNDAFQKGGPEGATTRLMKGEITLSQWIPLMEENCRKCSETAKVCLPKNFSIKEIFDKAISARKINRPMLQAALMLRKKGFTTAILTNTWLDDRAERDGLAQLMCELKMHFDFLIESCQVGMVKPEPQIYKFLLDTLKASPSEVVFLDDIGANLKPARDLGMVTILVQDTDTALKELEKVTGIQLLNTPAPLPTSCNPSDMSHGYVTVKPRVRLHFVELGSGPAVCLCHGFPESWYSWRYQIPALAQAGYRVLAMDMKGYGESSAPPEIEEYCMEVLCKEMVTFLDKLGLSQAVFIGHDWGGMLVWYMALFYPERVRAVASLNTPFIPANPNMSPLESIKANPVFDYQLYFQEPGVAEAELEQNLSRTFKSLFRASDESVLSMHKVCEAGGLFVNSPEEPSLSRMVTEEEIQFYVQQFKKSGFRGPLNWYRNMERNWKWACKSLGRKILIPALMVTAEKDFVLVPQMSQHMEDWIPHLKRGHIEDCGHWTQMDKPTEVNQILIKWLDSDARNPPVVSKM
Text: (§1) Any of a number of standard assays for determining epoxide hydrolase activity can be used to determine inhibition of sEHI. […] Suitable in vitro assays are described in Zeldin et al. J. Biol. Chem. 268:6402-6407 (1993). Suitable in vivo assays are described in Zeldin et al., Arch Biochem Biophys 330:87-96 (1996).
(§2) The enzyme also can be detected based on the binding of specific ligands to the catalytic site which either immobilize the enzyme or label it with a probe such as dansyl, fluoracein, luciferase, green fluorescent protein or other reagent. The enzyme can be assayed by its hydration of EETs, its hydrolysis of an epoxide to give a colored product as described by Dietze et al., 1994, supra, or its hydrolysis of a radioactive surrogate substrate (Borhan et al., 1995, supra). The enzyme also can be detected based on the generation of fluorescent products following the hydrolysis of the epoxide. Numerous methods of epoxide hydrolase detection have been described (see, e.g., Wixtrom, supra).
(§3) The assays are normally carried out with a recombinant enzyme following affinity purification. They can be carried out in crude tissue homogenates, cell culture or even in vivo, as known in the art and described in the references cited above.

metabolism and stability = details: in vivo
rat sEH = biological target: T2, rat sEH (Rattus norvegicus, UniProt P80299); experiment: rat sEH inhibition; type: biochemical
T2 sequence (P80299 1-554): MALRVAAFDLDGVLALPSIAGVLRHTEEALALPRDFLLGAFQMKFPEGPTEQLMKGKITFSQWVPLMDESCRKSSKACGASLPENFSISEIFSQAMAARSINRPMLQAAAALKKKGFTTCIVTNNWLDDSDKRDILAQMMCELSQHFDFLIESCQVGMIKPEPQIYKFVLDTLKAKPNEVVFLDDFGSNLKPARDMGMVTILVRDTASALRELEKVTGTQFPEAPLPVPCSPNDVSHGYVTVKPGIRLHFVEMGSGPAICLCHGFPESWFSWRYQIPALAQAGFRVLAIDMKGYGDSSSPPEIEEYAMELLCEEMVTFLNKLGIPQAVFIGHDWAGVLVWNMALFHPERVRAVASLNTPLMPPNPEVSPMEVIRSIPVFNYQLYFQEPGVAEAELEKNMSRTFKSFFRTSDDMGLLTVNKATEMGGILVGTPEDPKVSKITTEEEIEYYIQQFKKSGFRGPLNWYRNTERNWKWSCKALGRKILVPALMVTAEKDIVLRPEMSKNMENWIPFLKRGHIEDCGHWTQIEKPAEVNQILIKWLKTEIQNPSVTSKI

sEH [2] = experiment: inhibition of sEH; type: biochemical; details: relative to parent compound
Text: as §1, §2, §3

[3] = system: streptozocin induced neuropathic pain; experiment: von Frey test (mechanical allodynia) in streptozocin neuropathic rats; type: in vivo, rat; details: neuropathic pain model
Procedure: Male Sprague-Dawley rats weighing 250-300 grains were used. Animals were individually housed at UC Davis Animal Resource Facility under standard conditions with free access to food and water, and maintained for at least 1 week before the experiments. Pain was quantified using three tests, the hind paw withdrawal latency test, the mechanical hyperalgesia test and the mechanical allodynia test. All the experiments were performed during the daytime.
Rats were first trained to the experimental chamber in two separate sessions. On the day of the induction of neuropathy, the animals' basal response to all three tests were measured and then streptozocin (50 mg/kg) was administered intravenously. Animals were then followed over time for the development of neuropathic pain. An inhibitor of sEH was administered subcutaneously one week after the onset of pain symptoms. […] Compounds were formulated by dissolving them in ethanol and mixing with trans free oleic oil. At least six animals per group were used. The Von Frey test was conducted by stimulating the plantar surface of the rats' hind paw with a calibrated filament connected to a force transducer. As this filament is applied the amount of force exerted on the paw increases and the animal withdraws its paw when the force reaches its threshold. […] In the Randal-Selitto test a similar principle is used. The animals' hind paw is placed between a flat surface and a pointed tip of a force transducer. The pointed tip exerts force on the dorsal face of the paw. […] The two tests are complementary, but depend on the activity of different groups of nociceptors.
Treatments and behavioral nociceptive tests. […] Following baseline measurements, rats were first treated with 200 μl of vehicle or compound-formulated cream by topical application to one hindpaw, LPS ([…] in 50 μl 0.9% NaCl) was injected into the plantar surface of the treated paw. For subcutaneous administration, compounds were injected immediately after intraplantar LPS. […] A probe fitted with a filament that is connected to a force transducer was applied to the plantar hind paw surface through a wire-mesh platform until eliciting a withdrawal reflex. The duration of heat application or the force (gr) necessary to elicit a withdrawal was designated as TWL and MWT. The steroidogenesis inhibitors were applied 2 hours before sEHI and LPS administration. Diabetes was induced by intravenous injection of 50 mg/kg streptozocin (STZ) in saline following baseline measurements. Diabetic animals were tested at least one week after STZ administration. Three measurements were taken from each animal at each time point and average responses were converted to percent analgesia index based on each animals' baseline response.

[4] = system: streptozocin induced neuropathic pain; experiment: mechanical hyperalgesia test (Randal-Selitto) in streptozocin neuropathic rats; type: in vivo, rat
Procedure: Male Sprague-Dawley rats weighing 250-300 grains were used. Animals were individually housed at UC Davis Animal Resource Facility under standard conditions with free access to food and water, and maintained for at least 1 week before the experiments. Pain was quantified using three tests, the hind paw withdrawal latency test, the mechanical hyperalgesia test and the mechanical allodynia test. All the experiments were performed during the daytime. Rats were first trained to the experimental chamber in two separate sessions. On the day of the induction of neuropathy, the animals' basal response to all three tests were measured and then streptozocin (50 mg/kg) was administered intravenously. Animals were then followed over time for the development of neuropathic pain. An inhibitor of sEH was administered subcutaneously one week after the onset of pain symptoms. […] Pain response was measured at 60, 120, 240 and 480 minutes after the administration of the sEHI. Compounds were formulated by dissolving them in ethanol and mixing with trans free oleic oil. At least six animals per group were used. The Von Frey test was conducted by stimulating the plantar surface of the rats' hind paw with a calibrated filament connected to a force transducer. As this filament is applied the amount of force exerted on the paw increases and the animal withdraws its paw when the force reaches its threshold. […] In the Randal-Selitto test a similar principle is used. The animals' hind paw is placed between a flat surface and a pointed tip of a force transducer. The pointed tip exerts force on the dorsal face of the paw. […] The two tests are complementary, but depend on the activity of different groups of nociceptors.

| SMILES | activity as inhibitor of sEH (sEH [1]) | metabolic stability (metabolism and stability) | IC50 (rat sEH) | fold less active in inhibiting sEH than parent compound (sEH [2]) | pain scores of diabetic rats [3] | pain, mechanical hyperalgesia test (FIG. 3) ([4]; 25 mg/kg) | mechanical allodynia induced by diabetic neuropathy (FIG. 3 legend) ([4]; compound 1010 at equivalent dose) |
| --- | --- | --- | --- | --- | --- | --- | --- |
| CCCCCCCCCCCCNC(=O)NC12CC3CC(CC(C3)C1)C2 [ADU, N-Adamantyl-N-dodecyl urea] | particularly high activity on sEH | metabolically stable | – | – | – | – | – |
| CCOCCOCCOCCCCCNC(=O)NC12CC3CC(CC(O)(C3)C1)C2 [compound 1010, reference compound] | – | – | 1.16 µM | 250 fold | not | showed no effectiveness | shows no effectiveness in reducing nociception |
